# Experimental data reported in US20210060016A1, “ANTICANCER AGENT” (JAPANESE FOUNDATION FOR CANCER RESEARCH, priority 2017, published 2021).
# Tests used:
# [1] = test system: human colorectal cancer cell line COLO-320DM; experiment: Cell proliferation inhibitory activity test (Celltiter-Glo); assay type: cell-based; details: 96 hours, read-out: COLO-320DM (cell proliferation inhibitory activity), G150 rating
# Description: The cell proliferation inhibitory activity of the compound, which had been prepared in each of Compound Examples, against the human colorectal cancer cell line COLO-320DM was evaluated by Celltiter-Glo Luminescent Cell Viability Assay (Promega Corporation; G7573). COLO-320DM cells were cultured in RPMI-1640 medium containing 2 mM glutamine (Wako Pure Chemical Industries, Ltd; 189-02025) supplemented with 10% fetal bovine serum. The cultured cells were washed with PBS, and then dissociated with trypsin/EDTA, and a cell solution with 3×10^4 cells/mL was prepared.
# Subsequently, the cell solution was seeded in a 96-well microplate (Thermo/Nunc Company; 136101) in an amount of 70 μL per well, and cultured overnight under the condition of 37° C. and 5% COz. The next day, a test compound solution obtained by diluting the test compound (DMSO solution) with a cell culture medium (final concentration of DMSO was 1%) was added in an amount of 10 μL per well, and the mixture was reacted under the condition of 37° C. and 5% CO2 for 96 hours (a 1% DMSO solution was used as a control). Thereafter, a Celltiter-Glo Luminescent Cell Viability Assay reagent was added (Promega Corporation; G7573) in an amount of 80 μL per well, the mixture was stirred with a shaker for 2 minutes while light was blocked with an aluminum foil, and the mixture was incubated at room temperature for 10 minutes.
# Thereafter, a luminescence signal was measured with a luminometer (Biotech Company; Synergy). The ratio of cell proliferation in each compound addition group to cell proliferation in a control group containing no test compound solution, where cell proliferation in the control group is 100%, was determined, and the value of a compound concentration necessary for suppressing the amount of residual cells to 50% of that in the control (G150) was calculated as the cell proliferation inhibitory activity. For the COLO-320DM (cell proliferation inhibitory activity against COLO-320DM) of each test compound as measured through the above-mentioned method, a test compound having a G150 value of less than 1 μM was rated “A”, a test compound having a G150 value of 1 μM or more and less than 10 μM was rated “B”, a test compound having a G150 value of 10 μM or more was rated “C”, and an unevaluated test compound was designated as “NT”.
# tankyrase 2 = target: T1, tankyrase 2 (Homo sapiens, UniProt Q9H2K2); experiment: Tankyrase inhibitory activity test (ELISA, auto-poly(ADP-ribosyl)ation), TNKS2; assay type: biochemical; details: Flag-tagged tankyrase 2 (ANK5+SAM+PARP), read-out: TNKS2 (inhibitory activity against tankyrase 2), IC50 rating
# T1 construct: tankyrase 2 (613-1, 116aa, ANK5+SAM+PARP); made in house; host or cells: cell-free protein expression system
# T1 sequence (Q9H2K2 613-1166): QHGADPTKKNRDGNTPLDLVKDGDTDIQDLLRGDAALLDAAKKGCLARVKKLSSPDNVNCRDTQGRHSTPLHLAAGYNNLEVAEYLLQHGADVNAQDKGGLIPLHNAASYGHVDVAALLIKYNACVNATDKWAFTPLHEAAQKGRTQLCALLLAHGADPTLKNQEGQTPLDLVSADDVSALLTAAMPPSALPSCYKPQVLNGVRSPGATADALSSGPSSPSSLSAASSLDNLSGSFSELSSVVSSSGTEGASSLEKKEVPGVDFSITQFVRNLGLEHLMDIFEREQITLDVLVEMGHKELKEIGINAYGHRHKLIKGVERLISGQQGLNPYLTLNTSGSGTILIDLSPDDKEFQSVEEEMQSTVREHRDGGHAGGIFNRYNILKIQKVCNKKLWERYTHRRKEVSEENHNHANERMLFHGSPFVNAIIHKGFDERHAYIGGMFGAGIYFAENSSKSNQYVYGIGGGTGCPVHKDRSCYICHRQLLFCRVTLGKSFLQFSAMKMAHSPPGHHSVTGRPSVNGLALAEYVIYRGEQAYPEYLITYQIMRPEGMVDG
# Description: (§1) The enzymatic activity of tankyrase 1 and the enzymatic activity of tankyrase 2 were measured by the ELISA method based on assessment of auto-poly(ADP-ribosyl)ation to evaluate the tankyrase inhibitory activity of the compound prepared in each of Compound Examples (test compound) (inhibitory activity against tankyrase 1 (TNKS1) and inhibitory activity against tankyrase 2 (TNKS2)). First, Flag-tagged tankyrase 1 (1,024-1, 327aa, SAM+PARP) and tankyrase 2 (613-1, 116aa, ANK5+SAM+PARP) were synthesized with a cell-free protein expression system, and diluted with a Tris buffer solution (50 mM Tris-HCl (pH 8.0), 150 mM NaCl, 10% glycerol). 50 μL of the diluted tankyrase 1 or tankyrase 2 was added to a plate with an anti-FLAG M2 monoclonal antibody immobilized thereon (Anti-FLAG High-Sensitivity M2-Coated Plate) (Sigma-Aldrich), and the mixture was left to stand overnight at 4° C. Thereafter, the plate was washed four times with a PBS (PBST) buffer containing 0.1% TritonX-100.
# (§2) Subsequently, the test compound diluted with an assay buffer (50 mM Tris-HCl (pH 8.0), 4 mM MgCl2, 0.2 mM DTT) (DMSO was used as a control) was added to each well of the plate, and the mixture was left to stand at room temperature for 10 minutes. Thereafter, a biotin-labeled NAD solution (225 μM NAD, 25 μM 6-Biotin-17-NAD (Travigen, Inc.)) was added and mixed as a donor substrate, and the mixture was reacted at 30° C. for 45 minutes. To blank wells was added distilled water instead of the biotin-labeled NAD solution. After the reaction, the plate was washed with a PBST buffer four times. Thereafter, HRP (horseradish peroxidase)-labeled streptavidin (Travigen, Inc.) was diluted with a PBS buffer by 1,000 times, and added to each well, and the mixture was reacted at room temperature for 20 minutes. The plate was washed with a PBST buffer four times, a chemiluminescent substrate solution TACS-Sapphire (Travigen, Inc.) was then added to each well, the mixture was reacted at room temperature for 20 minutes, and thechemiluminescence intensity was measured using a chemiluminescence measuring apparatus.
# (§3) The residual enzymatic activity in the presence of the test compound was determined from the following expression. On the basis of the residual enzymatic activity at each of multiple concentrations of the test compound, the enzyme inhibitory activity was calculated in terms of a 50%-inhibition concentration (IC50 value) using data analysis software Origin (LightStone Corp.). Residual activity (%)={(chemiluminescence intensity with test compound added)−(chemiluminescence intensity of blank)}/{(chemiluminescence intensity of control)−(chemiluminescence intensity of blank))
# tankyrase 1 = target: T2, tankyrase 1 (Homo sapiens, UniProt O95271); experiment: Tankyrase inhibitory activity test (ELISA, auto-poly(ADP-ribosyl)ation), TNKS1; assay type: biochemical; details: Flag-tagged tankyrase 1 (SAM+PARP), read-out: TNKS1 (inhibitory activity against tankyrase 1), IC50 rating
# T2 construct: tankyrase 1 (1,024-1, 327aa, SAM+PARP); made in house; host or cells: cell-free protein expression system
# T2 sequence (O95271 1024-1327): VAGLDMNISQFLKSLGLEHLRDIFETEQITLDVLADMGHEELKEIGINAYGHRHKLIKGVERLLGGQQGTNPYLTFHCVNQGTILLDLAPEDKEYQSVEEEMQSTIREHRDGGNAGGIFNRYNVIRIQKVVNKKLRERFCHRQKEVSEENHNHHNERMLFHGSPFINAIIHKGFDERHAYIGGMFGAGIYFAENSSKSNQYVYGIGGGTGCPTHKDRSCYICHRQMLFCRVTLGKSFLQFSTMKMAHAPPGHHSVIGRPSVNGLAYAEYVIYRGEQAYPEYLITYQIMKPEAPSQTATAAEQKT
# Description: as §1, §2, §3
Structure (SMILES),IC50 [1] [µM],IC50 (tankyrase 2) [µM],IC50 (tankyrase 1) [µM]
COc1ccc(Cl)c2c1N(CC(C)(C)O)C(=O)C21CCN(c2nc3c(c(=O)[nH]2)CCCN3C)CC1 [Example 14],< 1,,
O=c1[nH]c(N2CCC3(CC2)CN(CCO)c2cc(F)cc(F)c23)nc2c1CCCC2 [Example 1],1 to 10,< 0.02,< 0.02
CN1CCN(CCOc2cc(F)c3c(c2)N(CC(F)(F)F)C(=O)C32CCN(c3nc4c(c(=O)[nH]3)CCCN4C)CC2)CC1 [Example 8],< 1,,
COc1cc(F)c2c(c1)N(CCO)C(=O)C21CCN(c2nc3c(c(=O)[nH]2)CCCN3C)CC1 [Example 2],< 1,,
CN1CCCc2c1nc(N1CCC3(CC1)C(=O)N(C)c1cc(C4CCC(O)CC4)cc(F)c13)[nH]c2=O (stereo not drawn) [Example 22],< 1,0.02 to 0.2,< 0.02
CN1CCCc2c1nc(N1CCC3(CC1)C(=O)N(C)c1cc(N4CCN(S(C)(=O)=O)CC4)cc(F)c13)[nH]c2=O [Example 17],< 1,,
COC(=O)N1CCN(c2cc(F)c3c(c2)N(C)C(=O)C32CCN(c3nc4c(c(=O)[nH]3)CCCN4C)CC2)CC1 [Example 18],< 1,,
C[C@@H]1CN(c2cc(F)c3c(c2)N(CC(F)(F)F)C(=O)C32CCN(c3nc4c(c(=O)[nH]3)CCCN4)CC2)C[C@H](C)O1 [Example 24],< 1,< 0.02,< 0.02
C[C@@H]1CN(c2cc(F)c3c(c2)N(C)C(=O)C32CCN(c3nc4c(c(=O)[nH]3)CCCN4)CC2)C[C@H](C)O1 [Example 23],< 1,< 0.02,< 0.02
CN1CCCc2c1nc(N1CCC3(CC1)C(=O)N(CC(F)(F)F)c1cc(OCc4nnn[nH]4)cc(F)c13)[nH]c2=O [Example 10],< 1,,
CN1CCCc2c1nc(N1CCC3(CC1)C(=O)N(C)c1cc(N4CCC(C#N)CC4)cc(F)c13)[nH]c2=O [Example 21],< 1,,
CN1CCCc2c1nc(N1CCC3(CC1)C(=O)N(C)c1cc(N4CC(C(=O)O)C4)cc(F)c13)[nH]c2=O [Example 12],< 1,,
COC1CCN(c2cc(F)c3c(c2)N(C)C(=O)C32CCN(c3nc4c(c(=O)[nH]3)CCCN4C)CC2)CC1 [Example 20],< 1,,
CN1CCCc2c1nc(N1CCC3(CC1)C(=O)N(CC#N)c1cc(F)cc(F)c13)[nH]c2=O [Example 3],< 1,,
CN1CCCc2c(O)nc(N3CCC4(CC3)OC(=O)c3cc(-c5cnn(C)c5)cc(F)c34)nc21 [Example 16],< 1,,
CN1CCCc2c1nc(N1CCC3(CC1)C(=O)N(C)c1cc(OC4CCOCC4)cc(F)c13)[nH]c2=O [Example 7],< 1,,

Structure (SMILES),IC50 [1] [µM],IC50 (tankyrase 2) [µM],IC50 (tankyrase 1) [µM]
"CCOc1ccc(-c2n[nH]cc2C2NC(=O)c3cccc(C)c3N2)cc1 (stereo not drawn) [Compound Example 103, 2-[5-(4-Ethoxyphenyl)-1H-pyrazol-4-yl]-8-methyl-2,3-dihydro-1H-quinazolin-4-one]",1 to 10,< 0.02,< 0.02
CN1CCCc2c1nc(N1CCC3(CC1)C(=O)N(C)c1cc(OCC4COC4)cc(F)c13)[nH]c2=O [Example 6],< 1,,
"COc1ccc(-c2n[nH]nc2C2NC(=O)c3cccc4c3N2CC4)cc1 (stereo not drawn) [Compound Example 106, 11-[5-(4-Methoxyphenyl)-2H-1,2,3-triazol-4-yl]-1,10-diazatricyclo[6.3.1.0^4,12]dodeca-4(12),5,7-trien-9-one]",1 to 10,< 0.02,< 0.02
"COc1ccc(-c2n[nH]cc2C2NC(=O)c3ccccc3N2C)cc1 (stereo not drawn) [Compound Example 109, 2-[5-(4-Methoxyphenyl)-1H-pyrazol-4-yl]-1-methyl-2,3-dihydroquinazolin-4-one]",≥ 10,< 0.02,< 0.02
CN1CCCc2c1nc(N1CCC3(CC1)C(=O)N(C)c1c(OC4CCOC4)ccc(Cl)c13)[nH]c2=O (stereo not drawn) [Example 13],< 1,< 0.02,< 0.02
"CN1c2ccccc2C(=O)NC1c1c[nH]nc1-c1cccc(F)c1 (stereo not drawn) [Compound Example 102, 2-[3-(3-Fluorophenyl)-1H-pirazol-4-yl]-1-methyl-2,3-dihydroquinazolin-4-one]",1 to 10,< 0.02,< 0.02
"Cc1cccc2c1NC(c1n[nH]nc1-c1ccc(OCC(F)F)cc1)NC2=O (stereo not drawn) [Compound Example 108, 2-[4-[4-(2,2-Difluoroethoxy)phenyl]-2H-1,2,3-triazol-5-yl]-8-methyl-2,3-dihydro-1H-quinazolin-4-one]",1 to 10,< 0.02,< 0.02
CN1CCN(c2cc(F)c3c(c2)N(C)C(=O)C32CCN(c3nc4c(c(=O)[nH]3)CCCN4C)CC2)CC1 [Example 5],< 1,,
CN1CCCc2c1nc(N1CCC3(CC1)C(=O)N(C)c1cc(N4CCC(C(=O)O)CC4)cc(F)c13)[nH]c2=O [Example 11],< 1,,
"COc1ccc(-c2n[nH]nc2C2NC(=O)c3ccccc3N2C)cc1 (stereo not drawn) [Compound Example 104, 2-[5-(4-Methoxyphenyl)-2H-1,2,3-triazol-4-yl]-1-methyl-2,3-dihydroquinazolin-4-one]",1 to 10,< 0.02,< 0.02
COc1cc(F)c2c(c1)N(CC#N)C(=O)C21CCN(c2nc3c(c(=O)[nH]2)CCCN3C)CC1 [Example 4],< 1,,
"COc1ccc(-c2n[nH]nc2C2NC(=O)c3cccc(C)c3N2)cc1 (stereo not drawn) [Compound Example 105, 2-[5-(4-Methoxyphenyl)-2H-1,2,3-triazol-4-yl]-8-methyl-2,3-dihydro-1H-quinazolin-4-one]",< 1,< 0.02,< 0.02
CN1CCCc2c1nc(N1CCC3(CC1)C(=O)N(CC(F)(F)F)c1cc(OCC(=O)O)cc(F)c13)[nH]c2=O [Example 9],< 1,< 0.02,< 0.02
C[C@@H]1CN(c2cc(F)c3c(c2)N(C)C(=O)C32CCN(c3nc4c(c(=O)[nH]3)CCCN4C)CC2)C[C@H](C)O1 [Example 19],< 1,,
"[2H]C([2H])([2H])Oc1ccc(-c2n[nH]nc2C2NC(=O)c3cccc(C)c3N2)cc1 (stereo not drawn) [Compound Example 107, 8-Methyl-2-[5-(4-(trideuteriomethoxy)phenyl)-2H-1,2,3-triazol-4-yl]-2,3-dihydro-1H-quinazolin-4-one]",< 1,< 0.02,< 0.02
CN1CCCc2c(O)nc(N3CCC4(CC3)C(=O)N(CC(C)(C)O)c3cccc(F)c34)nc21 [Example 15],< 1,,
